# Measurements from patent US20080311657A1, “Killing Human Lymphoma and Leukemia Cancer Cells and Tcr-Activated Normal Human Cells By Dopamine D1r Agonists” (priority 2005, published 2008).
# “And” between values parts separate entries of the source, which are not always exact repeats. Equal values may be shown once. “Also recorded” adds a separate entry of the source.
# Assays:
# [1] = test system: 5HT1 receptors; conditions: cited from earlier work
# [2] = test system: 5HT2 receptors; conditions: cited from earlier work
# [3] = test system: Human Chronic Myeloid Leukemia (CML, K-562); assay: Cell death by LDH release (CytoTox 96); assay type: cell-based
# Protocol: (§1) Cell viability was tested afterwards.
# (§2) Tables 3 and 4 show results of experiments designed primarily for studying the kinetics of the effect (herein fenoldopam hydrobromide was tested only at a concentration range of 10^−4 M-10^−6 M), and indicate that already after 1 minute of fenoldopam hydrobromide addition, there is an increased LDH. Yet, the extent of death increased gradually with time (10, 30 and 60 minutes), and after 1 hour the cancer cells released dramatic levels of LDH, indicating massive cell death.
# [4] = test system: Human T-Cell Lymphoma (HuT-78); assay: Cell death by LDH release (CytoTox 96); assay type: cell-based
# Protocol: as §1, §2
# [5] = test system: muscarinic receptors; conditions: cited from earlier work
# [6] = test system: D2-like receptors; conditions: cited from earlier work
# [7] = test system: α2-adrenoceptors; conditions: cited from earlier work
# [8] = test system: Human Burkitt's B-Cell Lymphoma (Daudi); assay: Cell death by LDH release (CytoTox 96); assay type: cell-based
# Protocol: as §1
# [9] = test system: α1 adrenoceptors; conditions: cited from earlier work
# [10] = test system: β adrenoceptors; conditions: cited from earlier work
# [11] = test system: Human cutaneous Sezary T-lymphoma cells (HuT-78); assay: Number of living cells counted by flow cytometry (FACSort) after D1R agonist; assay type: cell-based; conditions: added four times during 1 hour, counted 3 days later
# [12] = patients receiving the 48 hour FDA-approved infusion; cited from earlier work
# [13] = test system: Human T-cell leukemia (Jurkat) cells; assay: Number of living cells counted by flow cytometry (FACSort) after D1R agonist; assay type: cell-based; conditions: added four times during 1 hour, counted 3 days later
# Protocol: Afterwards, the microtiter plates were placed in an incubator (37° C., humidified incubator, 5% CO2) for 3 days. Then, the number of living cells was evaluated by flow cytometry (the cells were counted by FACsort for a fixed time length of 1 min, in which 100 microliter of each sample was tested). Of note, A 77636 hydrochloride is an orally-active D1R agonist, according to the manufacturer (Tocris).
# Afterwards, the microtiter plates were placed in an incubator (37° C., humidified incubator, 5% CO2) for 3 days. Then, the number of living cells was evaluated by flow cytometry (the cells were counted by FACsort for a fixed time length of 1 min, in which 100 microliter of each sample was tested).
# (§3) The experiment was designed to test the effect of exposing the cells to the D1R agonist for 1 min, 15 min, 1 hr or 72 hr. Thus, 1 min, or 15 min or 1 hr after the addition of the D1R agonist, the corresponding cells were transferred into tubes, centrifuged (1000 rpm for 10 min); and the supernatant was removed. […] Thus, its medium was not replaced, and these cells and remained as such in the incubator for 72 hr. At the end of the 72 hr incubation, the number of living cells was evaluated by flow cytometry (the cells were counted by FACsort for a fixed time length of 1 min, in which 100 microliter of each sample was tested).
# as §1
# (§4) For this purpose, the Jurkat T-cell leukemia line, the HuT-78 human T-lymphoma (cutaneous “Sezary” T-lymphoma) line, and the K-562 human Chronic-Myeloid Leukemia (CML) and Daudi Human B-lymphoma (Burkitt's lymphoma) lines were seeded in tissue culture wells (0.5 million cells/0.5 ml/well).
# (§5) Cell survival/death was evaluated 3 days later by counting the number of living cells, using flow cytometry.
# [14] = test system: Human Chronic Myeloid Leukemia (CML, K-562); assay: Cell death by LDH release (CytoTox 96); assay type: cell-based; conditions: FDM 10^−4M-10^−12M, added four times during 1 hour
# [15] = test system: TCR-activated normal human T-cells; assay: Cell death by LDH release (CytoTox 96); assay type: cell-based; conditions: FDM 10^−4M-10^−10M, added four times during 1 hour; methanesulfonate
# Protocol: Non-tissue culture treated 24-well plates (Falcon, Franklin Lakes, N.J.) were coated overnight at 4° C. with anti-CD3 and anti-CD28 monoclonal antibodies (mabs) (BD Pharmingen, San Jose, Calif.); ([…] in PBS). The wells were then washed with PBS, blocked for 1 hour at 37° C. (PBS/1% BSA), and washed again. The freshly purified normal human T-cells were resuspended in their respective fresh media and seeded in the anti-CD3/CD28 coated wells (1×10^6 per well), and the plates were incubated for 72 hours (37° C., humidified incubator, 5% CO2). Then, the cells and their media were collected from each well, transferred into 50 ml tubes, centrifuged (1200 rpm, 10 minutes) and both the TCR-activated cells and their culture media were collected and transferred into clean separate tubes.
# as §1
# [16] = test system: Human T-Cell Lymphoma (HuT-78); assay: Cell death by LDH release (CytoTox 96); assay type: cell-based; conditions: FDM 10^−4M-10^−12M, added four times during 1 hour
# [17] = test system: Human T-cell leukemia (Jurkat); assay: Cell death by LDH release (CytoTox 96); assay type: cell-based; conditions: FDM 10^−4M-10^−12M, added four times during 1 hour
# Protocol: as §1
# [18] = test system: Human chronic myelogenous leukemia cells (CML) (K-562); assay: Number of living cells counted by flow cytometry (FACSort) after D1R agonist; assay type: cell-based; conditions: added four times during 1 hour, counted 3 days later
# Protocol: (§6) Human chronic myelogenous leukemia cells (CML) (K-562) were seeded in 96 well plates (0.5 ml per well of 0.5 million cells/ml) and A 77636 hydrochloride was added and diluted 1:00 into the wells at starting concentrations of 10^−1M-10^−4M, so that the final concentration range tested was 10^−3M-10^−6M. Afterwards, the microtiter plates were placed in an incubator (37° C., humidified incubator, 5% CO2) for 3 days. Then, the number of living cells was evaluated by flow cytometry (the cells were counted by FACsort for a fixed time length of 1 min, in which 100 microliter of each sample was tested).
# as §6, with “68930” for “77636”
# as §6, with “SKF 38393 hydrobromide” for “A 77636 hydrochloride”
# as §3, with “Human chronic myelogenous leukemia cells (CML) (K-562) were seeded in 96 well plates (0.5 ml per well of 0.5 million cells/ml) and A 77636 hydrochloride was added and diluted 1:00 into the wells, at a fixed starting concentration of 10^−2M, so that the final concentration tested was 10^−4M. The” for “The”, “min),” for “min);”
# as §1, §4, §5
# The effect of dopamine itself (that can of course activate all its D1R-5 receptors) was also tested. All of these molecules were tested at a similar concentration (10^−4 M). […] The specificity and restriction of the effect to the D1R is also seen in Tables 7 and 8.
smiles,measurement,setting,value
Oc1ccc(C2CNCCc3c2cc(O)c(O)c3Cl)cc1 (stereo not shown) [Fenoldopam],"Affinity, in words",[1],no significant affinity
same,"Affinity, in words",[2],no significant affinity
same,"Release of LDH (OD), Average OD",[3]; Fenoldopam 10^−4M 1 Min,1.081 OD
same,"Release of LDH (OD), OD Duplicates",[3]; Fenoldopam 10^−4M 1 Min,1.081 OD
same,"Release of LDH (OD), Average OD",[3]; Fenoldopam 10^−4M 10 Min,0.863 OD
same,"Release of LDH (OD), OD Duplicates",[3]; Fenoldopam 10^−4M 10 Min,0.868 OD and 0.858 OD
same,"Release of LDH (OD), Average OD",[3]; Fenoldopam 10^−4M 30 Min,2.7755 OD
same,"Release of LDH (OD), OD Duplicates",[3]; Fenoldopam 10^−4M 30 Min,2.737 OD and 2.814 OD
same,"Release of LDH (OD), Average OD",[3]; Fenoldopam 10^−4M 60 Min,2.27 OD
same,"Release of LDH (OD), OD Duplicates",[3]; Fenoldopam 10^−4M 60 Min,2.733 OD and 1.807 OD
same,"Release of LDH (OD), Average OD",[3]; Fenoldopam 10^−5M 60 Min,2.9645 OD
same,"Release of LDH (OD), OD Duplicates",[3]; Fenoldopam 10^−5M 60 Min,2.907 OD and 3.022 OD
same,"Release of LDH (OD), Average OD",[3]; Fenoldopam 10^−6M 60 Min,0.7625 OD
same,"Release of LDH (OD), OD Duplicates",[3]; Fenoldopam 10^−6M 60 Min,0.759 OD and 0.766 OD
same,"Release of LDH (OD), Average OD",[4]; Fenoldopam 10^−4M 1 Min,0.8135 OD
same,"Release of LDH (OD), OD Duplicates",[4]; Fenoldopam 10^−4M 1 Min,0.786 OD and 0.841 OD
same,"Release of LDH (OD), Average OD",[4]; Fenoldopam 10^−4M 10 Min,1.4355 OD
same,"Release of LDH (OD), Average OD",[4]; Fenoldopam 10^−4M 30 Min,3.087 OD
same,"Release of LDH (OD), OD Duplicates",[4]; Fenoldopam 10^−4M 30 Min,3.015 OD and 3.159 OD
same,"Release of LDH (OD), Average OD",[4]; Fenoldopam 10^−4M 60 Min,2.8775 OD
same,"Release of LDH (OD), OD Duplicates",[4]; Fenoldopam 10^−4M 60 Min,2.688 OD and 3.067 OD
same,"Release of LDH (OD), Average OD",[4]; Fenoldopam 10^−5M 60 Min,2.9465 OD
same,"Release of LDH (OD), OD Duplicates",[4]; Fenoldopam 10^−5M 60 Min,2.907 OD and 3.022 OD
same,"Release of LDH (OD), Average OD",[4]; Fenoldopam 10^−6M 60 Min,0.7625 OD
same,"Release of LDH (OD), OD Duplicates",[4]; Fenoldopam 10^−6M 60 Min,0.759 OD and 0.766 OD
same,"Affinity, in words",[5],no significant affinity
same,"Affinity, in words",[6],no significant affinity
same,"Affinity, in words",[7],moderate affinity
same,"LDH Release (OD), Average","[8]; Fenoldopam 10^−4M, 1 hour",0.9595 OD
same,"LDH Release (OD), OD Duplicates","[8]; Fenoldopam 10^−4M, 1 hour",0.961 OD and 0.958 OD
same,"LDH Release (OD), Average","[8]; Fenoldopam 10^−5M, 1 hour",1.0025 OD
same,"LDH Release (OD), OD Duplicates","[8]; Fenoldopam 10^−5M, 1 hour",0.99 OD and 1.015 OD
same,"LDH Release (OD), Average","[8]; Fenoldopam 10^−6M, 1 hour",0.526 OD
same,"LDH Release (OD), OD Duplicates","[8]; Fenoldopam 10^−6M, 1 hour",0.525 OD and 0.527 OD
same,"LDH Release (OD), Average","[8]; Fenoldopam 10^−7M, 1 hour",0.5365 OD
same,"LDH Release (OD), OD Duplicates","[8]; Fenoldopam 10^−7M, 1 hour",0.55 OD and 0.523 OD
same,"LDH Release (OD), Average","[8]; Fenoldopam 10^−8M, 1 hour",1.339 OD
same,"LDH Release (OD), OD Duplicates","[8]; Fenoldopam 10^−8M, 1 hour",1.316 OD and 1.362 OD
same,"LDH Release (OD), Average","[8]; Fenoldopam 10^−9M, 1 hour",0.899 OD
same,"LDH Release (OD), OD Duplicates","[8]; Fenoldopam 10^−9M, 1 hour",0.903 OD and 0.895 OD
same,Concentration of maximal killing,"[8]; LDH release, 1 hour, Table 2",10^−8 M
same,"Affinity, in words",[9],no significant affinity
same,"Affinity, in words",[10],no significant affinity
"CS(=O)(=O)O.Oc1ccc(C2CNCCc3c2cc(O)c(O)c3Cl)cc1 (stereo not shown) [FDM, 6-chloro-2,3,4,5-tetrahydro-1-(4-hydroxyphenyl)-[1H]-3-benzazepine-7,8-diol methanesulfonate]",% Dead Cells,[11]; FDM 10^−4M,99%
same,No. of Living Cells,[11]; FDM 10^−4M,213
same,% Dead Cells,[11]; FDM 10^−6M,28%
same,No. of Living Cells,[11]; FDM 10^−6M,17023
same,No. of Living Cells,[11]; FDM 10^−8M,16080
same,% Dead Cells,"[11]; FDM 10^−8M, methanesulfonate",32%
same,% Dead Cells,[11]; FDM 10^−10M,38%
same,No. of Living Cells,[11]; FDM 10^−10M,14728
same,% Dead Cells,[11]; FDM 10^−12M,46%
same,No. of Living Cells,[11]; FDM 10^−12M,12662
same,Approximate steady state concentration in the circulation,[12],~10^−8 M
same,% Dead Cells,[13]; FDM 10^−4M,~100%
same,No. of Living Cells,[13]; FDM 10^−4M,4
same,% Dead Cells,[13]; FDM 10^−6M,18%
same,No. of Living Cells,[13]; FDM 10^−6M,15938
same,No. of Living Cells,[13]; FDM 10^−8M,7451
same,% Dead Cells,"[13]; FDM 10^−8M, methanesulfonate",62%
same,% Dead Cells,[13]; FDM 10^−10M,52%
same,No. of Living Cells,[13]; FDM 10^−10M,9472
same,% Dead Cells,[13]; FDM 10^−12M,46%
same,No. of Living Cells,[13]; FDM 10^−12M,10568
same,"Killing evident by LDH release (FIG. 4), in words",[14],kills human chronic myelogenous leukemia (CML) in a dose dependent manner
same,"Killing evident by LDH release (FIG. 8), in words",[15],"marked death; also recorded: kills human TCR-activated T-cells, in a dose dependent manner"
same,"Killing evident by LDH release (FIG. 3), in words",[16],kills human cutaneous Sezary T-cell lymphoma in a dose dependent manner
same,"Killing evident by LDH release (FIG. 2), in words",[17],kills human T-cell leukemia in a dose dependent manner
same,"Killing evident by LDH release (FIG. 5), in words","[8]; FDM 10^−4M-10^−12M, added four times during 1 hour",kills human Burkitt's B-lymphoma in a dose dependent manner
same,% Dead Cells,[18]; FDM 10^−4M,100%
same,No. of Living Cells,[18]; FDM 10^−4M,21
same,% Dead Cells,[18]; FDM 10^−6M,34%
same,No. of Living Cells,[18]; FDM 10^−6M,18680
same,No. of Living Cells,[18]; FDM 10^−8M,21137
same,% Dead Cells,"[18]; FDM 10^−8M, methanesulfonate",25% and 26%
same,% Dead Cells,[18]; FDM 10^−10M,25%
same,No. of Living Cells,[18]; FDM 10^−10M,21476
same,% Dead Cells,[18]; FDM 10^−12M,33%
same,No. of Living Cells,[18]; FDM 10^−12M,19250
